Reference: the supplement of paper PMC10307832

How the values were obtained:
[1] = compound: CC(C)N(CCCNC(=O)Nc1ccc(C(C)(C)C)cc1)C[C@H]1O[C@@H](n2ccc3c(N)ncnc32)[C@H](O)[C@@H]1O; experiment: relative viability (nuclei count vs DMSO), 5 days (fraction); higher = more cells survive
In short: (§1)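 Five library-drug doses spaced by √10 were pinned onto vehicle-anchored 1536-well plates of lung cancer cell lines that had been kept overnight at 37 °C. Cells went 5 days without medium change, then were fixed, permeabilised and Hoechst-stained together, imaged at 4× and counted by MetaXpress. Viability is the ratio of treated-well to vehicle-well nuclei, taken as a median over plates. Plates required control CV below 25% and at least one doubling.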

Shikonin = compound: CC(C)=CC[C@@H](O)C1=CC(=O)c2c(O)ccc(O)c2C1=O [Shikonin]; experiment: as above
In short: as §1

Cell Line | relative viability ([1]; 0.08 µM) | relative viability ([1]; 0.253 µM) | relative viability ([1]; 0.8 µM) | relative viability ([1]; 2.53 µM) | relative viability ([1]; 8 µM) | relative viability (Shikonin; 0.01 µM) | relative viability (Shikonin; 0.1 µM) | relative viability (Shikonin; 0.3162 µM) | relative viability (Shikonin; 1 µM)
201T | 1 | 1.02 | 0.746 | 0.981 | 1.02 | 1 | 1.06 | 1.02 | 1.09
A549 | 0.93 | 0.877 | 1.02 | 0.94 | 0.933 | 1.02 | 0.956 | 1.07 | 0.997
A-427 | 0.962 | 0.93 | 1.03 | 0.958 | 0.984 | 1.03 | 1.17 | 1.02 | 1.16
ABC-1 | 0.859 | 0.797 | – | 1.05 | 1.01 | 0.921 | 1.13 | 0.91 | 0.764
BEN | 0.954 | 1.02 | 0.948 | 0.863 | 1.03 | 0.926 | 1 | 1.03 | 1.18
CAL-12T | 0.937 | 0.906 | 0.992 | 0.969 | 0.938 | 1.03 | 1.07 | 0.981 | 0.991
COR-L23 | 1.04 | 1.03 | 1.08 | 1.01 | 1.02 | 1.18 | 1.02 | 1.12 | 0.995
COR-L 105 | 0.887 | 0.943 | 0.921 | 0.943 | 0.923 | 0.979 | 0.973 | 0.911 | 0.855
Calu-6 | 1 | 1.03 | 0.996 | 1.04 | 0.966 | 1.05 | 1.11 | 1.04 | 0.93
ChaGo-K-1 | 0.97 | 0.889 | 0.918 | 0.96 | 1.06 | 1.02 | 0.971 | 1.05 | 1.02
EBC-1 | 0.926 | 0.96 | 0.874 | 0.941 | 0.808 | 1.06 | 0.997 | 1.05 | 0.962
EKVX | 1 | 0.934 | 0.932 | 1 | 0.862 | 1 | 0.963 | 1.08 | 0.964
EMC-BAC-2 | 0.943 | 0.928 | 1.03 | 0.905 | 0.889 | 0.97 | 0.997 | 1.11 | 1.13
EPLC-272H | 0.907 | 0.883 | 0.968 | 0.936 | 0.859 | 0.906 | 0.974 | 1.06 | 1.09
H3255 | 0.876 | 0.929 | 0.919 | 0.933 | 0.893 | 0.978 | 1.06 | 1.05 | 1.02
HARA | 0.882 | 0.954 | 0.62 | 0.774 | 0.784 | 0.931 | 1.21 | 1.07 | 1.22
HCC-15 | 0.938 | 0.986 | 0.786 | 0.979 | 0.914 | 1.06 | 1.04 | 1.12 | 1.09
HCC-44 | 0.989 | 1.04 | 0.789 | 0.976 | 0.93 | 1 | 1.05 | 1.03 | 1.09
HCC-78 | 1.05 | 0.787 | 0.942 | 0.875 | 1 | 0.942 | 1.14 | 1.04 | 1.15

Cell Line | relative viability ([1]; 0.08 µM) | relative viability ([1]; 0.253 µM) | relative viability ([1]; 0.8 µM) | relative viability ([1]; 2.53 µM) | relative viability ([1]; 8 µM) | relative viability (Shikonin; 0.01 µM) | relative viability (Shikonin; 0.1 µM) | relative viability (Shikonin; 0.3162 µM) | relative viability (Shikonin; 1 µM)
HCC-366 | 0.965 | 0.988 | 0.927 | 0.984 | 0.892 | 0.975 | 1.15 | 1.04 | 1.03
HCC-827 | 1.03 | 1.06 | 0.584 | 1.01 | 0.961 | 1.04 | 1.04 | 1.04 | 1.06
HOP-62 | 1.04 | 1.06 | 0.856 | 0.939 | 0.879 | 1.15 | 1.11 | 1.23 | 1.02
IA-LM | 1.02 | 0.879 | 1.02 | 0.963 | 0.84 | 1.13 | 0.875 | 1.05 | 0.859
LC-2-ad | 0.978 | 1.03 | 0.731 | 0.944 | 0.882 | 0.965 | 1.05 | 1.01 | 1.01
LCLC-97TM1 | 1.05 | 1 | 1.07 | 0.903 | 0.989 | 0.991 | 1.02 | 1.08 | 0.968
LCLC-103H | 0.946 | 0.966 | 0.857 | 0.839 | 1.01 | 0.946 | 1.2 | 1.05 | 1.08
LK-2 | 0.886 | 0.792 | 1.04 | 0.966 | 0.974 | 1.1 | 0.955 | 0.998 | 1.03
LOU-NH91 | 0.981 | 0.908 | – | 0.979 | 1 | 0.984 | 1.04 | 1.04 | 1.02
LU99A | 0.876 | 0.842 | 1.04 | 0.979 | 1.02 | 1.02 | 1 | 0.996 | 0.923
LXF-289 | 0.97 | 1.03 | 0.923 | 1.03 | 0.95 | 1.08 | 0.999 | 1.08 | 0.992
NCI-H23 | 0.912 | 0.707 | 1.07 | 0.931 | 0.9 | 1.02 | 1.11 | 1 | 0.981
NCI-H322M | 0.929 | 0.893 | 0.93 | 0.918 | 0.975 | 0.924 | 0.917 | 0.921 | 1.06
NCI-H358 | 0.856 | 0.873 | 1.04 | 0.924 | 0.889 | 0.978 | 0.862 | 0.967 | 0.979
NCI-H441 | 1.01 | 1.06 | – | 1.1 | 0.981 | 1.24 | 0.942 | 1.18 | 0.975
NCI-H460 | 0.982 | 0.953 | 0.935 | 0.996 | 1.02 | 1.06 | 1.07 | 1.07 | 1.05
NCI-H520 | 0.882 | 0.773 | 0.793 | 0.98 | 0.939 | 0.947 | 1.06 | 0.977 | 0.931
NCI-H522 | 0.868 | 0.898 | 0.885 | 0.99 | 0.997 | 0.962 | 1.09 | 0.955 | 0.956
NCI-H596 | 0.976 | 0.795 | 0.962 | 1.11 | 1.09 | 0.935 | 0.962 | 1.04 | 1.08

Cell Line | relative viability ([1]; 0.08 µM) | relative viability ([1]; 0.253 µM) | relative viability ([1]; 0.8 µM) | relative viability ([1]; 2.53 µM) | relative viability ([1]; 8 µM) | relative viability (Shikonin; 0.01 µM) | relative viability (Shikonin; 0.1 µM) | relative viability (Shikonin; 0.3162 µM) | relative viability (Shikonin; 1 µM)
NCI-H647 | 0.912 | 0.831 | 0.812 | 0.955 | 0.864 | 1.07 | 1.08 | 1.08 | 0.9
NCI-H650 | 0.831 | 0.902 | 1.06 | 0.775 | 0.882 | 1.08 | 0.937 | 0.999 | 0.913
NCI-H661 | 1.04 | 0.962 | 1.04 | 1.02 | 1 | 1 | 1.06 | 1.06 | 0.928
NCI-H727 | 0.867 | 0.815 | 0.868 | 0.931 | 0.943 | 0.916 | 1.03 | 0.933 | 1.02
NCI-H838 | 0.92 | 0.748 | 0.931 | 0.958 | 0.904 | 1.09 | 1.04 | 1.03 | 0.988
NCI-H1299 | 0.979 | 1.01 | 0.955 | 0.999 | 0.963 | 1.05 | 1.06 | 1.01 | 0.973
NCI-H1355 | 0.913 | 0.915 | 0.75 | 1.03 | 0.879 | 0.981 | 1.08 | 1.02 | 1.04
NCI-H1395 | 0.838 | 0.782 | 0.646 | 0.933 | 0.799 | 0.899 | 0.987 | 0.846 | 0.987
NCI-H1437 | 0.926 | 0.941 | 0.92 | 0.965 | 0.957 | 0.989 | 1.01 | 0.998 | 0.989
NCI-H1563 | 0.918 | 0.849 | 0.944 | 1.03 | 0.957 | 0.944 | 0.954 | 1.01 | 0.959
NCI-H1623 | 0.947 | 0.968 | 0.934 | 0.911 | 1.01 | 0.934 | 0.817 | 1.08 | 1.07
NCI-H1648 | 0.756 | 0.935 | 0.68 | 0.784 | 0.823 | 0.911 | 0.686 | 1.07 | 1.08
NCI-H1650 | 0.865 | 0.909 | – | 0.952 | 0.934 | 0.914 | 0.992 | 0.782 | 0.962
NCI-H1651 | 0.963 | 0.918 | 0.92 | 1 | 0.957 | 1.09 | 0.919 | 1.01 | 1.02
NCI-H1666 | 1.06 | 1.03 | 0.975 | 1.05 | 0.914 | 0.966 | 1.02 | 1.08 | 1.05
NCI-H1703 | 0.913 | 1.04 | 0.803 | 1.03 | 0.782 | 0.994 | 1.21 | 0.864 | 0.646
NCI-H1734 | 0.926 | 0.804 | 0.962 | 0.949 | 0.916 | 0.935 | 1.15 | 1.02 | 0.991
NCI-H1755 | 1.01 | 0.944 | 0.856 | 0.926 | 0.913 | 1.03 | 1.01 | 1.12 | 1
NCI-H1792 | 1.06 | – | 0.812 | 0.912 | 0.99 | 0.987 | 0.991 | 0.922 | 1.22
